Assay results reported in patent US20210189643A1 (VF Jeanswear LP, priority 2017, published 2021).

Assay: Hydrolysis of modified indigo compound to indigo
Type: physicochemical
Conditions: under hydrolyzing conditions
Method: In some embodiments, the substrate is contacted with a hydrolyzing agent, the hydrolyzing agent being capable of reacting with the modified indigo compound contained within the substrate to convert the modified indigo compound into indigo.
The hydrolysis is performed using any chemical compound or condition that is capable of converting the dye compound to indigo. In some embodiments, the hydrolysis is performed in aqueous compositions which contain a hydrolyzing agent. In other embodiments, the hydrolyzing agent may be selected by one skilled in the art and may include, without limitation, a base, heat, steam, or a combination thereof.

**Q.** For O=C1/C(=C2/C(=O)c3ccccc3N2C(=O)c2ccncc2)N(C(=O)c2ccncc2)c2ccccc21 [Compound 37], which “conversion to indigo by hydrolysis” value is on record?
**A.** hydrolyzes to indigo
